In PMC10891803, “Seleno-Warfare against Cancer: Decoding Antitumor Activity of Novel Acylselenoureas and Se-Acylisoselenoureas” (Pharmaceutics, 2024):

Assays:
[1] = test system: MDA-MB-231, HTB-54, DU-145, and HCT-116; test: MTT initial screening in four tumor cell lines; type: cell-based; conditions: Homo sapiens, in at least three cell lines, 48 h, read-out: cell growth inhibition
Method: (§1) Cell viability was determined using the MTT colorimetric assay. A total of 10,000 cells were seeded in each well in a 96-well plate for 24 h. Then, cells were incubated with the corresponding concentration of each tested compound and with DMSO (1%) as control for 48 h. Each compound was dissolved in DMSO at a stock concentration of 0.01 M. Firstly, each compound was tested at 2 concentrations (10 µM and 50 µM) in four human tumoral cell lines MDA-MB-231, HTB-54, DU-145, and HCT-116. Serial dilutions from stock concentration with culture medium were prepared. […] The cell viability was determined by the addition of 20 µL of MTT and its incubation for 2.5 h. Later, the culture medium was removed, and 50 µL of DMSO was added to dissolve formazan crystals. The absorbance was measured at 550 nm. Inhibitory concentration 50 (IC50) and selectivity index (SI) were calculated. Three different experiments were performed independently.

184-B5 = test: MTT cell viability assay, non-malignant 184-B5; type: cell-based; conditions: Homo sapiens, 48 h, mean ± SD of three experiments, read-out: IC50 184-B5 (Breast, non-tumoral)
Method: (§2) The cell lines were purchased from the American Type Culture Collection (ATCC). The four tumor cell lines used were as follows: MDA-MB-231 (triple-negative breast cancer), HTB-54 (lung cancer), DU-145 (prostate cancer), and HCT-116 (colon cancer), and the non-tumoral cell line 185-B5 (mammary tissue) were grown in Roswell Park Memorial Institute (RPMI) 1640 medium culture (Thermo Scientific, USA), supplemented with 10% fetal bovine serum (FBS) (Thermo Scientific, USA) and 1% of antibiotics (10,000 units/mL penicillin and 10 mg/mL streptomycin (Thermo Scientific, USA)). Cells were preserved in tissue culture flasks at 37 °C and 5% CO2. The culture medium was replaced every two to three days.
as §1
(§3) Cell viability results are expressed as the mean ± standard deviation (SD), and experiments were independently performed thrice in triplicates. IC50 values were determined using a non-linear curve regression analysis calculated by OriginPro 9.0 software.

HCT-116 = test: MTT cell viability assay, HCT-116; type: cell-based, human; conditions: 10 µM, 48 h, MTT screening (Figure S1)
Method: as §2, §1, §3

DU-145 = test: MTT cell viability assay, DU-145; type: cell-based, human; conditions: 48 h; for percentage of cell growth, DU-145: 10 µM, MTT screening (Figure S1); for IC50: Homo sapiens, DU-145, MTT, mean ± SD of three experiments, read-out: IC50 DU-145 (Prostate)
Method: as §2, §1, §3

HTB-54 = test: MTT cell viability assay, HTB-54; type: cell-based, human; conditions: 48 h; for percentage of cell growth, HTB-54: 10 µM, MTT screening (Figure S1); for IC50: Homo sapiens, HTB-54, MTT, mean ± SD of three experiments, read-out: IC50 HTB-54 (Lung)
Method: as §2, §1, §3

MDA-MB-231 = test: MTT cell viability assay, MDA-MB-231; type: cell-based, human; conditions: for percentage of cell growth, MDA-MB-231: 10 µM, MTT screening (Figure S1); for percentage of cell growth, MDA-MB-231 / IC50: 48 h; for IC50: Homo sapiens, MDA-MB-231, MTT, mean ± SD of three experiments, read-out: IC50 MDA-MB-231 (Breast); for Selectivity index (SI): IC50 184-B5/IC50 MDA-MB-231
Method: as §2, §1, §3

[2] = test system: panel of 60 cancer cell lines; test: NCI60 Five-Dose assay; type: cell-based; conditions: Five-Dose assay 0.01–100 µM, 48 h, 60 cell line panel
Method: (§4) The ten compounds with the highest cell growth inhibition activity were submitted to the Developmental Therapeutics Program (DTP) of the National Cancer Institute (NCI). The assay consists of the evaluation of the cytotoxicity by a One-Dose screening at 10^−5 M against a panel of 60 cancer cell lines of different tumors (leukemia, lung, central nervous system (CNS), melanoma, ovarian, renal, prostate, and breast cancer cell lines). […] A range of 5000–40,000 cells/well were seeded and cultured in RPMI 1640 containing 5% of FBS and 2 mM L-glutamine and were inoculated into 96-well microtiter plates in 100 µL. The microtiter plates are incubated at 37 °C and 5% humidified CO2 for 24 h prior to the addition of experimental drugs. After that, an experimental drug was added, and the microtiter was incubated for 48 h.

[3] = test system: panel of 60 cancer cell lines; test: NCI60 One-Dose screening; type: cell-based; conditions: 1·10^−5 M, 48 h, mean of 60 cancer cell lines
Method: as §4

SMILES	inhibition at 10 µM [1]	IC50 (184-B5)	percentage of cell growth, HCT-116 (HCT-116)	melting point	percentage of cell growth, DU-145 (DU-145)	IC50 (DU-145)	percentage of cell growth, HTB-54 (HTB-54)	IC50 (HTB-54)	percentage of cell growth, MDA-MB-231 (MDA-MB-231)	IC50 (MDA-MB-231)	Selectivity index (SI) (MDA-MB-231)	GI50 [2]	mean value of cell growth, One-Dose assay [3]
CC(=O)Oc1ccccc1C(=O)[Se]C(=NC1CCCCC1)NC1CCCCC1 [Compound 1]	> 50%	15.8 ± 1.33 µM	94.15%	96 to 97 °C	-96.27%	5.17 ± 0.32 µM	-52.60%	8.31 ± 1.01 µM	39.10%	8.56 ± 0.1 µM	1.84	< 2000 nM	−68.50%
O=C(/C=C/c1ccccc1)[Se]C(=NC1CCCCC1)NC1CCCCC1 [Compound 2]	–	–	120.40%	156 to 158 °C	118.17%	–	74.82%	–	-19.52%	–	–	–	–
CC(C)N=C(NC(C)C)[Se]C(=O)c1ccccc1 [Compound 3]	–	–	119.69%	163 to 165 °C	149.27%	–	109.68%	–	129.19%	–	–	–	–
CC(C)N=C(NC(C)C)[Se]C(=O)Cc1cccs1 [Compound 5]	–	–	139.96%	108 to 110 °C	143.58%	–	92.05%	–	115.35%	–	–	–	–
CC(C)N=C(NC(C)C)[Se]C(=O)c1cccs1 [Compound 6]	–	–	122.83%	120 to 122 °C	124.09%	–	111.26%	–	124.62%	–	–	–	–
CC(C)N=C(NC(C)C)[Se]C(=O)c1ccc2c(c1)OCO2 [Compound 7]	–	–	105.51%	138 to 140 °C	131.68%	–	108.33%	–	119.84%	–	–	–	–
O=C(NC(=[Se])NC1CCCCC1)c1ccccc1 [Compound 8]	> 50%	27 ± 5.2 µM	104.00%	71 to 73 °C	-90.24%	8.83 ± 0.16 µM	-18.34%	14.6 ± 1.11 µM	15.90%	17.4 ± 5.09 µM	1.55	–	–
CC(=O)Oc1ccccc1C(=O)NC(=[Se])NC1CCCCC1 [Compound 9]	> 50%	11.4 ± 18 µM	117.25%	79 to 81 °C	-44.19%	8.76 ± 2.13 µM	-7.60%	29.8 ± 22.5 µM	1.88%	10.2 ± 0.29 µM	1.11	–	–
O=C(NC(=[Se])NC1CCCCC1)c1cccs1 [Compound 10]	> 50%	49 ± 39.2 µM	122.54%	64 to 66 °C	-82.64%	5.18 ± 0.19 µM	-25.90%	10.1 ± 4.88 µM	107.48%	10.1 ± 0.25 µM	4.83	–	–
O=C(/C=C/c1ccccc1)NC(=[Se])NC1CCCCC1 [Compound 11]	–	–	103.12%	140 to 142 °C	50.53%	–	57.39%	–	71.20%	–	–	–	–
O=C(NC(=[Se])NC1CCCCC1)c1ccc2c(c1)OCO2 [Compound 12]	> 50%	39.3 ± 18.4 µM	76.40%	117 to 119 °C	-74.14%	5.22 ± 0.13 µM	-34.26%	10.7 ± 13.7 µM	-7.07%	30.7 ± 2.31 µM	1.28	–	–
O=C(/C=C/c1cccs1)NC(=[Se])NC1CCCCC1 [Compound 13]	–	–	145.89%	–	52.85%	–	39.11%	–	-21.69%	–	–	–	–
O=C(/C=C/c1ccc2c(c1)OCO2)NC(=[Se])NC1CCCCC1 [Compound 14]	–	–	101.60%	149 to 151 °C	10.32%	–	44.98%	–	83.89%	–	–	–	–
CC(C)NC(=[Se])NC(=O)c1ccccc1 [Compound 15]	> 50%	8.51 ± 4.81 µM	123.90%	125 to 127 °C	-80.57%	5.19 ± 1.55 µM	-57.90%	26.4 ± 16.9 µM	-59.41%	24.5 ± 7.55 µM	0.34	< 2000 nM	−31.58%
CC(=O)Oc1ccccc1C(=O)NC(=[Se])NC(C)C [Compound 16]	> 50%	22.2 ± 3.41 µM	86.98%	75 to 77 °C	-67.79%	11.4 ± 3.07 µM	-0.98%	23 ± 23.5 µM	24.61%	10.2 ± 13.6 µM	2.17	–	–
CC(C)NC(=[Se])NC(=O)c1cccs1 [Compound 17]	> 50%	42.2 ± 11.4 µM	115.35%	120 to 122 °C	-72.56%	5.12 ± 0.07 µM	-22.97%	5.09 ± 0.34 µM	20.49%	10.2 ± 0.39 µM	4.15	–	–
CC(C)NC(=[Se])NC(=O)/C=C/c1ccccc1 [Compound 18]	–	–	75.78%	–	15.40%	–	57.40%	–	65.14%	–	–	–	–
CC(C)NC(=[Se])NC(=O)c1ccc2c(c1)OCO2 [Compound 19]	> 50%	36.8 ± 14.5 µM	97.76%	–	-82.75%	5.13 ± 0.02 µM	-4.52%	21.9 ± 9.1 µM	-45.41%	12.7 ± 10.8 µM	2.89	–	–
CC(C)NC(=[Se])NC(=O)/C=C/c1cccs1 [Compound 20]	–	–	109.34%	148 to 149 °C	-13.89%	–	38.63%	–	65.39%	–	–	–	–
CC(C)NC(=[Se])NC(=O)/C=C/c1ccc2c(c1)OCO2 [Compound 21]	–	–	89.57%	172 to 174 °C	76.50%	–	27.21%	–	-6.05%	–	–	–	–
CC(C)NC(=[Se])NC(=O)c1ccccc1O [Compound 22]	–	–	80.19%	162 to 164 °C	-6.12%	–	3.08%	–	73.13%	–	–	–	–
